Measured values as given in BindingDB's records for doi:10.3109/10799899109064686 (Center For Bio-Pharmaceutical Sciences, 1991).
pKi: −log10 of the molar value.

Columns and labels:
[1] = biological target: D(1A) dopamine receptor (Rattus norvegicus, UniProt P18901)
[2] = biological target: T1, Adenosine receptor A1 (Rattus norvegicus, UniProt P25099)
T1 sequence (P25099 whole entry): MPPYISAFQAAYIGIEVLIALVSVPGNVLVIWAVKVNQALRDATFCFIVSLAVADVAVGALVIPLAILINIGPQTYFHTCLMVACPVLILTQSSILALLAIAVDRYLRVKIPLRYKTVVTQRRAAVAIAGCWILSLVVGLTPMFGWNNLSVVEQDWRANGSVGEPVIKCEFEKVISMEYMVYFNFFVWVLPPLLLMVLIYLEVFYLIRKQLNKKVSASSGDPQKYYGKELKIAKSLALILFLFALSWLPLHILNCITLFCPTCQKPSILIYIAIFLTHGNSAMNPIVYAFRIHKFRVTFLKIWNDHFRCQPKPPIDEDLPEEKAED

[3] = biological target: Histamine H1 receptor (Rattus norvegicus, UniProt P31390)
Chain of Histamine H1 receptor (P31390 whole entry): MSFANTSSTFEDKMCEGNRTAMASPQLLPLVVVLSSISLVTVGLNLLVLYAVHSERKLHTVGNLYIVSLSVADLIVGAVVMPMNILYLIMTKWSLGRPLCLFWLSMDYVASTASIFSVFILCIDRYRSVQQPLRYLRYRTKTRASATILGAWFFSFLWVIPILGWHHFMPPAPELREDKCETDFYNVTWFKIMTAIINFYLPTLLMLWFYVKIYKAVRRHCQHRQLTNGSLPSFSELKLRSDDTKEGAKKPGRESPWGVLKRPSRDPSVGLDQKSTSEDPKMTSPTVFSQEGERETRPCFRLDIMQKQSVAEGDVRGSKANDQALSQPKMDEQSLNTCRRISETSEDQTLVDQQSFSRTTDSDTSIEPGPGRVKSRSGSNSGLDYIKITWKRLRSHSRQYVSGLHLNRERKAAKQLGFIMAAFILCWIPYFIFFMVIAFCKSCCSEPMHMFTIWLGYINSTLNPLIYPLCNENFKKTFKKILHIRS

[4] = biological target: Mu-type opioid receptor (Rattus norvegicus, UniProt P33535)
Chain of Mu-type opioid receptor (P33535 whole entry): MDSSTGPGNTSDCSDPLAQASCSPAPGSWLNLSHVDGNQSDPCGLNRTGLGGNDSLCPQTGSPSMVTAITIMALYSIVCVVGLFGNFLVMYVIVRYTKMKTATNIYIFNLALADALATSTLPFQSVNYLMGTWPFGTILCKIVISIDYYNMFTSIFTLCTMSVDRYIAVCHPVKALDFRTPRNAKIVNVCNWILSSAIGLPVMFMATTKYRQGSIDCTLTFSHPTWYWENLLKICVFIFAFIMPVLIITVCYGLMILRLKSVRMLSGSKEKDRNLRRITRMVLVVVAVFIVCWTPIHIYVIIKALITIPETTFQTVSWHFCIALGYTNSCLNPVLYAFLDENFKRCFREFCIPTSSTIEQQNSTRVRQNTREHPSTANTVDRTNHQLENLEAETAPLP

[5] = biological target: T2, Alpha-2C adrenergic receptor (Rattus norvegicus, UniProt P22086)
T2 sequence (P22086 whole entry): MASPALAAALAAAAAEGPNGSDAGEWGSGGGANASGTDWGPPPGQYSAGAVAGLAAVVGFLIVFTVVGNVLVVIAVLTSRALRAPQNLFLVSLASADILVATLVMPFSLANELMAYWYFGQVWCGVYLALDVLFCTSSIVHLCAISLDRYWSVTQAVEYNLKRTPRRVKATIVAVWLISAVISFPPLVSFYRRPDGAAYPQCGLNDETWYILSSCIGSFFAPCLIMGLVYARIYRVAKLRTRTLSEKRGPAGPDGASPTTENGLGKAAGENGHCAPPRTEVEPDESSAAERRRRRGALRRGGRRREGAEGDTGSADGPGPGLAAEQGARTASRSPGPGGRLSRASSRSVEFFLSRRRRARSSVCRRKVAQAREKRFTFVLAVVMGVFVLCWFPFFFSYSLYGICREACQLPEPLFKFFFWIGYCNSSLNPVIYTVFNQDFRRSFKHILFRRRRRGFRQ

[6] = biological target: T3, 5-hydroxytryptamine receptor 1A (Rattus norvegicus, UniProt P19327)
T3 sequence (P19327 whole entry): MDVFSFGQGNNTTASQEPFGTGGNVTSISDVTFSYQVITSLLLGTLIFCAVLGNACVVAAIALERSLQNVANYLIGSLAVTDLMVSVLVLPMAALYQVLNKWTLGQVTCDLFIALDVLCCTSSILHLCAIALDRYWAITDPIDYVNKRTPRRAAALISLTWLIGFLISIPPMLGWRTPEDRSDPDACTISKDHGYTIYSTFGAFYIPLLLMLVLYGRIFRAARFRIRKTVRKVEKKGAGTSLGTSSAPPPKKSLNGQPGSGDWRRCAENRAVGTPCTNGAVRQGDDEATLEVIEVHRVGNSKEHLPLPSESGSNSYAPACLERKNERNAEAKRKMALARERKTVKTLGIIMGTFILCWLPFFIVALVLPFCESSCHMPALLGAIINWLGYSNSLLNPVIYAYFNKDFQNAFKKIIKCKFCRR

[7] = biological target: T4, Gastrin/cholecystokinin type B receptor (Rattus norvegicus, UniProt P30553)
T4 sequence (P30553 whole entry): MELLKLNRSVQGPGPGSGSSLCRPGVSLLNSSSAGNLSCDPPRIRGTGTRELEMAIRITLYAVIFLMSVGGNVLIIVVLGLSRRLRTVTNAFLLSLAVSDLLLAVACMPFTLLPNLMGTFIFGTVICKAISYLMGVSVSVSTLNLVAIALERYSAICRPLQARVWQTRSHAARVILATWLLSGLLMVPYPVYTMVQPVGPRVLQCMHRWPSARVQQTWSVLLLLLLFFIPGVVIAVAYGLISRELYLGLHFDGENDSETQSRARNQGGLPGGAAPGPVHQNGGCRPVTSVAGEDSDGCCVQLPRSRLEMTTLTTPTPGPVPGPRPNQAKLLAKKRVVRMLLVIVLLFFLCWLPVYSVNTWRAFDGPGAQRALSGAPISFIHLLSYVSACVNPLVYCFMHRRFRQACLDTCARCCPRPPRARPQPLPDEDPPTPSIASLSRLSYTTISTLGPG

[8] = biological target: T5, Adenosine receptor A1 (Bos taurus, UniProt P28190)
T5 sequence (P28190 whole entry): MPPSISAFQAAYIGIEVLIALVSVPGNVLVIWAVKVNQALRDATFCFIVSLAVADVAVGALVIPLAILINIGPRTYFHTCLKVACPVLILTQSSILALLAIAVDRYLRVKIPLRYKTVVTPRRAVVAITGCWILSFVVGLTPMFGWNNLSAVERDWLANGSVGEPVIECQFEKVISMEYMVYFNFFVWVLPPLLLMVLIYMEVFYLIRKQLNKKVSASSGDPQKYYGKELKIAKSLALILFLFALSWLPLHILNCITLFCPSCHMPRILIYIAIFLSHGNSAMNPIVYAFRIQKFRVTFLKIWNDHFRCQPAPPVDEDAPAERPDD

[9] = biological target: T6, 5-hydroxytryptamine receptor 2C (Sus scrofa, UniProt G7ZKZ7)
T6 sequence (G7ZKZ7 whole entry): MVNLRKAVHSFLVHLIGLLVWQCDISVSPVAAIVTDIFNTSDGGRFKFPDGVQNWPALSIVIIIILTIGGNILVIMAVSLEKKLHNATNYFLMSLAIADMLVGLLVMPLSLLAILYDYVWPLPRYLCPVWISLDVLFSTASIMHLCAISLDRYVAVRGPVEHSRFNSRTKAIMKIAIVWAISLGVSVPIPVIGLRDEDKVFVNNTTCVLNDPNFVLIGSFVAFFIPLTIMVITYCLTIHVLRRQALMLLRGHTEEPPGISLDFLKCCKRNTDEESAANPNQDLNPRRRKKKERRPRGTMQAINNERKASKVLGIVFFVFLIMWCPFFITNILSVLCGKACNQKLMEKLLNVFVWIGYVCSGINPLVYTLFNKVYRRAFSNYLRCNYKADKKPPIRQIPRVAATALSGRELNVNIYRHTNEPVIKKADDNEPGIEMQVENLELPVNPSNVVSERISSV

[10] = biological target: Adenosine receptor A2a (Rattus norvegicus, UniProt P30543)
Chain of Adenosine receptor A2a (P30543 whole entry): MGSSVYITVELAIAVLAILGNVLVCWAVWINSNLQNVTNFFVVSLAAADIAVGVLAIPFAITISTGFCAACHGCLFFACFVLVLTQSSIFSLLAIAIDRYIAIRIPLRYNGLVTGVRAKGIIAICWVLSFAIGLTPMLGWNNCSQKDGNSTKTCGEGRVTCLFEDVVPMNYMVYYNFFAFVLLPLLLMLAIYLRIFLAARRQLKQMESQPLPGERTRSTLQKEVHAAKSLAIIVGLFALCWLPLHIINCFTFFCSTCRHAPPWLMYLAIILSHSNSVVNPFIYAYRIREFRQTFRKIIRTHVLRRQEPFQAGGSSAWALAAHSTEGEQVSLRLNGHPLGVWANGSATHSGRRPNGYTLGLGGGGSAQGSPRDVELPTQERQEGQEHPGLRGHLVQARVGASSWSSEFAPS

Chain of D(1A) dopamine receptor (P18901 whole entry): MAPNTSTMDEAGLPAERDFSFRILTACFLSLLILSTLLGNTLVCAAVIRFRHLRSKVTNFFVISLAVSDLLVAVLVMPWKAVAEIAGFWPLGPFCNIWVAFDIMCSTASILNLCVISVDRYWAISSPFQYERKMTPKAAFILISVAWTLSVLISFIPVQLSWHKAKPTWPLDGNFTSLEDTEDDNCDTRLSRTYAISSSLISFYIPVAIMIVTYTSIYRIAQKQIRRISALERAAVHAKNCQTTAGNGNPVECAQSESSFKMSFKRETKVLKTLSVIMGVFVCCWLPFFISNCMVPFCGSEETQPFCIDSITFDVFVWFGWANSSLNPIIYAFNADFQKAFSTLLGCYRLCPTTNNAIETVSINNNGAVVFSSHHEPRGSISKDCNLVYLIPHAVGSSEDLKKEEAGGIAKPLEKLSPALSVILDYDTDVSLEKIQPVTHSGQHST

Structure (SMILES)	pKi [1]	pKi [2]	pKi [3]	pKi [4]	pKi [5]	pKi [6]	pKi [7]	pKi [8]	pKi [9]	pKi [10]
N=C(N)NC(=O)c1nc(Cl)c(N2CCCCCC2)nc1N	< 5.00	5.92	5.25	7.21	5.28	< 5.00	< 5.00	6.39	5.17	5.34
N=C(N)NC(=O)c1nc(Cl)c(N)nc1N [3,5-diamino-N-carbamimidoyl-6-chloropyrazine-2-carboxamide]	< 5.00	4.96	< 5.00	< 5.00	< 5.00	< 5.00	< 5.00	5.70	< 5.00	4.77
NC(=NCc1ccccc1)NC(=O)c1nc(Cl)c(N)nc1N [NSC_108107]	< 5.00	6.01	5.49	5.96	5.66	5.72	< 5.00	6.19	< 5.00	5.19
